SMILES strings stand for the structures. Where a name gives a salt, the structure may show the parent alone. A value given as a limit tells only on which side of the number the result lay.

For one assay, the target named is T1, mouse TMC6 protein (Mus musculus, UniProt Q7TN60, A788T).
T1 construct: expressed in transfected cells; host or cells: CHO-K1
T1 sequence (Q7TN60 1-810 A788T): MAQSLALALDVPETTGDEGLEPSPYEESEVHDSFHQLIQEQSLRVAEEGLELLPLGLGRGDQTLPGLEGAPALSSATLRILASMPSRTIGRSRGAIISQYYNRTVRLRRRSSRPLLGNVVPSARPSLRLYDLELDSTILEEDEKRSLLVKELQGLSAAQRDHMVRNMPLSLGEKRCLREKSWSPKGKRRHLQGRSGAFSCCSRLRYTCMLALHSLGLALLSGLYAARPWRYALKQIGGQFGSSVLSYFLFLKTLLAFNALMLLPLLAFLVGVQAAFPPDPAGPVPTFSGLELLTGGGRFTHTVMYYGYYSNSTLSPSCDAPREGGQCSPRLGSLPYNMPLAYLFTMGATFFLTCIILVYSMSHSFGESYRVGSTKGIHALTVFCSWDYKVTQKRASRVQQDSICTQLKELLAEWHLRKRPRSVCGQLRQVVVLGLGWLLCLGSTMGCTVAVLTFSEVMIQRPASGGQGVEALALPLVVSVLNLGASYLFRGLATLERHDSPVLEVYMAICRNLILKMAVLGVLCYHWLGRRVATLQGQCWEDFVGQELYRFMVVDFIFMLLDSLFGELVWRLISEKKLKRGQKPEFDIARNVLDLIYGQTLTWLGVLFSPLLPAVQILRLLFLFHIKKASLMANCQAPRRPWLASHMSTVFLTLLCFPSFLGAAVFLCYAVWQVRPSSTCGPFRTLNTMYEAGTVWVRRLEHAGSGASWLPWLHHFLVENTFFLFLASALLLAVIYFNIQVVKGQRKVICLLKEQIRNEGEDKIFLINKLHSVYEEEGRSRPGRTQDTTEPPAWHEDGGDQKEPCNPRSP
The experiment in a line: Calcium imaging (YC2.60 FRET) of CHO-K1 cells expressing the mouse TMC6 gene. As to conditions: one typical TMC6-expressing cell, stimulation with ATP stimulation solution (50 μM ATP), FIG. 13C. Type of assay: cell-based. As to the method: CHO-K1 cells were transfected with TMC6-pcDNA3.1 or pcDNA3.1 in combination with YC2.60-pcDNA, to prepare TMC6-expressing cells (cells expressing the mouse TMC6 gene and the YC2.60 gene) and control cells (cells expressing the YC2.60 gene). The prepared cells were stimulated, and activation of the cells was measured. The procedure was as follows.
That is, first, CHO-K1 cells (ATCC) were inoculated into a culture dish having a diameter of 60 mm while adjusting the number of the cells to obtain 60% confluence, and cultured for 8 hr. As the medium, 5 mL of Ham's F-12K (Kaighn's) (Life Technologies) containing 10% fetal bovine serum (Life Technologies) was used. A 15 μL aliquot of FuGENE 6 (Promega) was added to 235 μL of Opti-MEM (Thermo Fisher Scientific), and incubated for 5 min at a room temperature. Then, 0.625 μg of TMC6-pcDNA3.1 and 2.5 μg of YC2.60-pcDNA were further added thereto, and incubated for 15 min at a room temperature. Then, the whole of the resultant mixture was dropped into the culture broth of the CHO-K1 cells, and the culture broth was mildly stirred. Then, the cells were further cultured for 18 hr under a condition of 5% CO2 at 37° C., to obtain the TMC6-expressing cells. Similarly, the control cells were obtained through transfection using pcDNA3.1 instead of TMC6-pcDNA3.1.
After the cultivation, the culture broth was removed. A low-concentration NaCl solution (27 mM NaCl, 1 mM KCl, 0.4 mM CaCl2, 0.2 mM MgCl2, 2 mM Hepes (pH7.3), 1 mM NaHCO3, 2 mM glucose, 2 mM sodium pyruvate, and 112 mM NMDG-Cl) was added to the culture dish, incubation was carried out statically for 5 min, and then, stimulation and observation of cells were started. First, the low-concentration NaCl solution was perfused for approximately 80 sec, to provide a ground state. Then, a high-concentration NaCl solution (135 mM NaCl, 1 mM KCl, 0.4 mM CaCl2, 0.2 mM MgCl2, 2 mM Hepes (pH7.3), 1 mM NaHCO3, 2 mM glucose, and 2 mM sodium pyruvate) was perfused instead of the low-concentration NaCl solution for approximately 60 sec, to stimulate the cells. […]

For assay [1], the system named is wild-type C57BL/6J mouse and homo knockout mouse of the TMC6 gene. In words: Palatability tests for taste substances other than NaCl, two-bottle method. Type of assay: in vivo. As to conditions: 48 hr, taste substance aqueous solution versus control aqueous solution. The method, then:
<Taste Substance Aqueous Solutions>
MSG: 100 mM monosodium glutamate
MSG+IMP: 100 mM monosodium glutamate+1 mM inosinic acid
Citric Acid: 10 mM citric acid
Quinine HCl: 0.3 mM quinine hydrochloride
Fructose: 300 mM fructose

As to `Nc1ncnc2c1ncn2[C@@H]1O[C@H](COP(=O)(O)OP(=O)(O)OP(=O)(O)O)[C@@H](O)[C@H]1O` [ATP], the “relative FRET value (YFP/CFP) of the ROI-1 cell” value on mouse TMC6 protein is at least 1.3.
For the compound `C=C[C@H]1C[N@@]2CC[C@H]1C[C@H]2[C@H](O)c1ccnc2ccc(OC)cc12` [Quinine HCl, quinine hydrochloride], in assay [1], the “difference in palatability or repellency between Tmc6 −/− mouse and wild-type mouse” value (from here on “difference”) is recorded as “No difference”.
Regarding `OC[C@H]1O[C@@](CO)(O[C@H]2O[C@H](CO)[C@@H](O)[C@H](O)[C@H]2O)[C@@H](O)[C@@H]1O` [Sucrose, sucrose], the “difference” value in assay [1] is “No difference”.
With `N[C@@H](CCC(=O)O)C(=O)[O-].[Na+]` [MSG, monosodium glutamate], the “difference” value in assay [1] is reported as “No difference”.
On to `O=C(CO)[C@@H](O)[C@H](O)[C@H](O)CO` [Fructose, fructose], for which the “difference” value in assay [1] was “No difference”.
The same measure, in the same setting: with `O=C(O)CC(O)(CC(=O)O)C(=O)O` [Citric acid, citric acid] the entry was “No difference”.
